# According to publication PMC4077706, “Lifting the Mask: Identification of New Small Molecule Inhibitors of Uropathogenic Escherichia coli Group 2 Capsule Biogenesis” (PLoS ONE, 2014):
# Columns and labels:
# [1] = tested on: Bladder carcinoma 5637 cells; assay type: cell-based
# Procedure: Testing was performed essentially as previously described, [44]. Concentration-response testing was performed over a range 0.58–300 µM in a […] plate format. Bladder carcinoma 5637 cells (ATCC HTB-9) were added to the compounds, and 72 hrs later cell viability was measured using CellTiter Glo (Promega). […] Hyamine was used as a positive cytotoxic control. All wells contained 0.5% DMSO.
# [2] = tested on: K1 antigen of E. coli UTI89; test: K1 antigen dot blot; assay type: cell-based, Escherichia coli; details: 100 µM
# Procedure: K1 antigen was detected by dot blot assays of culture extracts probed with anti-K1 H46 serum. The assay was performed as previously described. The experiment was repeated twice with similar results, and a representative dot blot is shown.
# Adenosine A1 = target: T1, Adenosine A1 (Homo sapiens, UniProt P30542); test: Radioligand binding 200510; details: 10 µM
# T1 construct: host or cells: CHO cells
# Adenosine A3 = Adenosine A3 (Homo sapiens, UniProt P0DMS8); assay type: binding; details: 10 µM
# Adrenergic β1 = target: T2, Adrenergic β1 (Homo sapiens, UniProt P08588); assay type: binding; details: 10 µM
# T2 construct: host or cells: CHO-K1 cells
# Endothelin ETA = target: T3, Endothelin ETA (Homo sapiens, UniProt P25101); assay type: binding; details: 10 µM
# T3 construct: host or cells: CHO-K1 cells
# Endothelin ETB = target: T4, Endothelin ETB (Homo sapiens, UniProt P24530); assay type: binding; details: 10 µM
# T4 construct: host or cells: CHO-K1 cells
# Estrogen ERα = target: T5, Estrogen ERα (Homo sapiens, UniProt P03372); assay type: binding; details: 10 µM
# T5 construct: host or cells: insect Sf9 cells
# GABAA, Muscimol, Central = assay type: binding, rat; details: 10 µM
# GABAB1A = target: T6, GABAB1A (Homo sapiens, UniProt Q9UBS5); test: Radioligand binding 228610; details: 10 µM
# T6 construct: host or cells: CHO cells
# Glutamate, NMDA, Agonism = Glutamate, NMDA, Agonism (Rattus norvegicus, UniProt Q00959); test: Radioligand binding 232810; details: 10 µM
# Histamine H3 = target: T7, Histamine H3 (Homo sapiens, UniProt Q9Y5N1); test: Radioligand binding 239820; details: 10 µM
# T7 construct: host or cells: CHO-K1 cells
# Muscarinic M1 = target: T8, Muscarinic M1 (Homo sapiens, UniProt P11229); test: Radioligand binding 252610; details: 10 µM
# T8 construct: host or cells: CHO-K1 cells
# Neuropeptide Y Y1 = target: T9, Neuropeptide Y Y1 (Homo sapiens, UniProt P25929); test: Radioligand binding 257010; details: 10 µM
# T9 construct: Human SK-N-MC cells; host or cells: SK-N-MC cells
# Nicotinic Acetylcholine = test: Radioligand binding 258590; design: species or system human; details: 10 µM
# [3] = target: Nicotinic Acetylcholine α1, Bungarotoxin (Homo sapiens, UniProt P02708+P07510+Q07001); assay type: binding; details: 10 µM
# Opiate κ(OP2, KOP) = Opiate κ(OP2, KOP) (Homo sapiens, UniProt P41145); assay type: binding; details: 10 µM
# Opiate µ(OP3, MOP) = target: T10, Opiate µ(OP3, MOP) (Homo sapiens, UniProt P35372); assay type: binding; details: 10 µM
# T10 construct: host or cells: CHO-K1 cells
# [4] = target: T11, Platelet Activating Factor (PAF) (Homo sapiens, UniProt P25105); assay type: binding; details: 10 µM
# T11 construct: Human platelets; host or cells: human platelets
# Tachykinin NK1 = target: T12, Tachykinin NK1 (Homo sapiens, UniProt P25103); test: Radioligand binding 255520; details: 10 µM
# T12 construct: host or cells: CHO
# Thyroid Hormone = Thyroid Hormone (Rattus norvegicus, UniProt P18113); assay type: binding; details: 10 µM
# [5] = target: T13, Transporter, Norepinephrine (NET) (Homo sapiens, UniProt P23975); assay type: binding; details: 10 µM
# T13 construct: host or cells: MDCK
# Potassium Channel hERG = Potassium Channel hERG (Homo sapiens, UniProt Q12809); details: 10 µM
# [6] = target: Serotonin (5-Hydroxytryptamine) 5-HT2B (Homo sapiens, UniProt P41595); test: Radioligand binding 271700; design: host or cells: CHO-K1; details: 10 µM
# [7] = target: Transporter, Dopamine (DAT) (Homo sapiens, UniProt Q01959); assay type: binding; design: host or cells: CHO-K1; details: 10 µM
# Dopamine D2S = Dopamine D2S (Homo sapiens, UniProt P14416); assay type: binding; design: host or cells: CHO cells; details: 10 µM
# Bradykinin B2 = Bradykinin B2 (Homo sapiens, UniProt P30411); assay type: binding; design: host or cells: Chem-1 cells; details: 10 µM
# Glucocorticoid = Glucocorticoid (Homo sapiens, UniProt P04150); test: Radioligand binding 232030; design: host or cells: insect cells; details: 10 µM
# Glutamate, NMDA, Glycine = Glutamate, NMDA, Glycine (Rattus norvegicus, UniProt P35439); assay type: binding; design: Wistar Rat cerebral cortex; tissue Eurofins Panlabs 232910; host or cells: Wistar rat cerebral cortex; details: 10 µM
# Potassium Channel hERG, sequence (Q12809 whole entry): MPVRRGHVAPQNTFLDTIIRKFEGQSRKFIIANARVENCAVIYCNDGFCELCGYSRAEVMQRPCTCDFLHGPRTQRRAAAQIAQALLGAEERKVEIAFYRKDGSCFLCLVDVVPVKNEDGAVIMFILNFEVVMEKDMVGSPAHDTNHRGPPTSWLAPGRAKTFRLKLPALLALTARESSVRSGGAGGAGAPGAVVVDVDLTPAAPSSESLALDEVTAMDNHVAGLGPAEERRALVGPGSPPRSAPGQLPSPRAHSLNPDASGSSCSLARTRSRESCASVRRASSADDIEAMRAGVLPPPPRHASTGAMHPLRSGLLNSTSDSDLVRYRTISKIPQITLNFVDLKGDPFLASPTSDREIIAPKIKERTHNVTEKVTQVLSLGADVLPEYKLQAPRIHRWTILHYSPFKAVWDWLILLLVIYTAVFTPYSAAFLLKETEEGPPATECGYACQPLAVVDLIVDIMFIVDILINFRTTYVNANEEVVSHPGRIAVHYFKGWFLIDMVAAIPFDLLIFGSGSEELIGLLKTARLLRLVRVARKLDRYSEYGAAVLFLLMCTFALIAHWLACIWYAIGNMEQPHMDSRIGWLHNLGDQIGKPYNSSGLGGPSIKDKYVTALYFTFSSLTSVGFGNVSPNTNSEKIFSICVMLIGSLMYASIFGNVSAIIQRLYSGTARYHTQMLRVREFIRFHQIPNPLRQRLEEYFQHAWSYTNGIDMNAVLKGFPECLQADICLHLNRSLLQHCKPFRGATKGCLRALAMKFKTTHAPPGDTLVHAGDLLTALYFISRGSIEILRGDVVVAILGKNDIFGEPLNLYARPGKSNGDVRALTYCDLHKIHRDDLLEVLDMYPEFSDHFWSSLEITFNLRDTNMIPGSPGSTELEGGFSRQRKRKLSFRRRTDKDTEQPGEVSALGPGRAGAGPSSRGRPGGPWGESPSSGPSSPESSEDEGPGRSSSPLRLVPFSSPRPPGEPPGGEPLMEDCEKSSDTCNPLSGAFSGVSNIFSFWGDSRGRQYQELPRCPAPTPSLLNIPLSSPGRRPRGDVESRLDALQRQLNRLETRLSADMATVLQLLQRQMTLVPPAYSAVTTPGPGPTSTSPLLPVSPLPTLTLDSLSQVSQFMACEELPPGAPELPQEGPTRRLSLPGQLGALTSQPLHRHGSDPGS
# T7 sequence (Q9Y5N1 whole entry): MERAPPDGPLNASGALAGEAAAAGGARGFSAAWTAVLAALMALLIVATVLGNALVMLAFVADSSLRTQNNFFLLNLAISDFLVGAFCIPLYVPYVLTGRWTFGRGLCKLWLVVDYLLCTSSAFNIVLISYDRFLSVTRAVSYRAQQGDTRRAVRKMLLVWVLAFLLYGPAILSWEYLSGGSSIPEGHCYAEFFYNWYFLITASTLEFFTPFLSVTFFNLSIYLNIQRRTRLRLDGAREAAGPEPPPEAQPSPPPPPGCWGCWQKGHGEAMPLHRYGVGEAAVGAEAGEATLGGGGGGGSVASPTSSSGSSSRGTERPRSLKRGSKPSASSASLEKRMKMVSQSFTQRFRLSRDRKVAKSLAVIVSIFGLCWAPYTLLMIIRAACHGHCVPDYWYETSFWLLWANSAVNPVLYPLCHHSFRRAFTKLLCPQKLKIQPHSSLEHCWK
# Glutamate, NMDA, Agonism, sequence (Q00959 23-1464, other chains not shown): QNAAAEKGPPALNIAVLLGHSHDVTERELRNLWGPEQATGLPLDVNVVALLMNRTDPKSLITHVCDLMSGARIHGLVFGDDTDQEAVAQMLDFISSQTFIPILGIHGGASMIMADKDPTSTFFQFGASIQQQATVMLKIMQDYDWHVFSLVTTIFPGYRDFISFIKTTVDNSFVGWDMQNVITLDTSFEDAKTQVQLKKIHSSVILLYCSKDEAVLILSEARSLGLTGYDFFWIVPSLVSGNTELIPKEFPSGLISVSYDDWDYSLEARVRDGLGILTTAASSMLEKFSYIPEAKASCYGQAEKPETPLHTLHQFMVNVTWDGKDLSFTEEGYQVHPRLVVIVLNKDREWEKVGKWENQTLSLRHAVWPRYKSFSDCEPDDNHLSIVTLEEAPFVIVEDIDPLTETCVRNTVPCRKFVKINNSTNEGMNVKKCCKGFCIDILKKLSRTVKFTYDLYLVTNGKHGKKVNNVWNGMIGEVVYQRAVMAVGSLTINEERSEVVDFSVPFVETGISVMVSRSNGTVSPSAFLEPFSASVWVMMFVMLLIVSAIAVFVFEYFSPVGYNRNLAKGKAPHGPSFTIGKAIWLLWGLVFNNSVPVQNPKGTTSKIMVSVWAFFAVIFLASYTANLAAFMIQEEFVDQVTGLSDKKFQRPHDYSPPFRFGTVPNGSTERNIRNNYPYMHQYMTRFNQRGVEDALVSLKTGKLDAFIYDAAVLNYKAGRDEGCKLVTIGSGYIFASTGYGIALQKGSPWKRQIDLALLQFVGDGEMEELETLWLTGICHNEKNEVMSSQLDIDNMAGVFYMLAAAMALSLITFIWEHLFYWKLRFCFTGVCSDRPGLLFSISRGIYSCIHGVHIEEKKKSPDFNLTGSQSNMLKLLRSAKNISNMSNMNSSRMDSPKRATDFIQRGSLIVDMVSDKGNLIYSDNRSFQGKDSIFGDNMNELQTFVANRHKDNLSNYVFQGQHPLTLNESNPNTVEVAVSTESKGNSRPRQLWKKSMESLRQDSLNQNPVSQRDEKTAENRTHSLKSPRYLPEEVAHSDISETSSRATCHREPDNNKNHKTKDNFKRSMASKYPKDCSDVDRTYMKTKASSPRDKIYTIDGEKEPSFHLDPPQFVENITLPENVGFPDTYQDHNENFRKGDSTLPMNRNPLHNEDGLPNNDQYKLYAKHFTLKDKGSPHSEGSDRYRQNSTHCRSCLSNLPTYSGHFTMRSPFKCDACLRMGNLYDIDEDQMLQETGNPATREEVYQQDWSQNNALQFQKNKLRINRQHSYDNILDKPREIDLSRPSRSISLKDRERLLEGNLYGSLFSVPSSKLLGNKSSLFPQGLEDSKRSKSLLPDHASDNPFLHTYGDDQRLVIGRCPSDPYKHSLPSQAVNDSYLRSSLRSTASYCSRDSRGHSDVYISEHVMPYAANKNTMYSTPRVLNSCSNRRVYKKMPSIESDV
# Thyroid Hormone, sequence (P18113 whole entry): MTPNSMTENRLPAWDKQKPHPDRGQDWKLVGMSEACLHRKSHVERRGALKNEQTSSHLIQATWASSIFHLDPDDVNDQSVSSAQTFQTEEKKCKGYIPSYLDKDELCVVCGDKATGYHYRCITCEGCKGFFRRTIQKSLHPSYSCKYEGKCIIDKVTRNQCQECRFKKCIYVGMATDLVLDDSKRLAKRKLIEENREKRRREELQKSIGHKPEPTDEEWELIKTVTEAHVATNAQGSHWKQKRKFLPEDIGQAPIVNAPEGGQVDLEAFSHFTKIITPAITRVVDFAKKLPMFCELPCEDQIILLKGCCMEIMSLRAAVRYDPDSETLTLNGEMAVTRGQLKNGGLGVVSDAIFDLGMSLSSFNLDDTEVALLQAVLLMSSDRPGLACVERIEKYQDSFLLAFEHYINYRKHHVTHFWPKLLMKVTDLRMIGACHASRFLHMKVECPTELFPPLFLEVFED
# Serotonin (5-Hydroxytryptamine) 5-HT2B, sequence (P41595 whole entry): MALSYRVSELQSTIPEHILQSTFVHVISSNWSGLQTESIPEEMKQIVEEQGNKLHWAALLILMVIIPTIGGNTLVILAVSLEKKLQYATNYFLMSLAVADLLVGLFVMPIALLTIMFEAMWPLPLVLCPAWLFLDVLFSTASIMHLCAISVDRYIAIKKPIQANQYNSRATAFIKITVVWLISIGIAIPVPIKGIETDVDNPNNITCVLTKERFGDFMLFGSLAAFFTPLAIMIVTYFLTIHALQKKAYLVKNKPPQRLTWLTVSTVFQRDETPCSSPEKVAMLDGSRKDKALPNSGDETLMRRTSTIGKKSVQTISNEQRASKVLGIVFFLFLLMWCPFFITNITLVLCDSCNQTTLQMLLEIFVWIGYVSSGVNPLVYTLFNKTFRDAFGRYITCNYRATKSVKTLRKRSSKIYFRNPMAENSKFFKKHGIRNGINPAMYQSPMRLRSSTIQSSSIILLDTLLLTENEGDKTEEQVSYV
# T6 sequence (Q9UBS5 15-961): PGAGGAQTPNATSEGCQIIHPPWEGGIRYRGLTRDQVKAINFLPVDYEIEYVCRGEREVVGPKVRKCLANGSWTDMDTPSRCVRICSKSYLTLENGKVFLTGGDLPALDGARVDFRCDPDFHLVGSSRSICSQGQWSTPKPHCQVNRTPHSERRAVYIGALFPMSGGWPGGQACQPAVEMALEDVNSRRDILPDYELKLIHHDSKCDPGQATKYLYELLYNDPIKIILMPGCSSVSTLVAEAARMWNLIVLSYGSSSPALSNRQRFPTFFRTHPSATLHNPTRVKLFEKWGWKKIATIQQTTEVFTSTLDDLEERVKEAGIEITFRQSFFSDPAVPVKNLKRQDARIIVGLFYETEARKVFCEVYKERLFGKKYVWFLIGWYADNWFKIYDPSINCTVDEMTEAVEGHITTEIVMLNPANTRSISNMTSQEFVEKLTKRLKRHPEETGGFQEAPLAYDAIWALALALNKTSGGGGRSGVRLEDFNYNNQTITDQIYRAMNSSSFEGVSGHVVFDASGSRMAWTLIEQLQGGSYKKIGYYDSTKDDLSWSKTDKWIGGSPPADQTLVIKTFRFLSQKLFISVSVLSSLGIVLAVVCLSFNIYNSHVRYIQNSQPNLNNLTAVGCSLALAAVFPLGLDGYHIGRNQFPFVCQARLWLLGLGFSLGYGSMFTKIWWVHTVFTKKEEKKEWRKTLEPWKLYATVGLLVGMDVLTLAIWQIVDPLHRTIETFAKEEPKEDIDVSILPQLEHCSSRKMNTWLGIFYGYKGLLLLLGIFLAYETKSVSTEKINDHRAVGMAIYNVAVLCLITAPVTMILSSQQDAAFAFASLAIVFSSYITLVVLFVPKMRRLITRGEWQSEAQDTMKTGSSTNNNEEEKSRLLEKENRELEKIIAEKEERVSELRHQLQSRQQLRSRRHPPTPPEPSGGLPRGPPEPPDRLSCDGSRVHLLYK
smiles,measurement,setting,value
CCOc1ccc(-c2cc(NC(=O)c3c(F)cccc3F)c(C(=O)O)s2)cc1 [DU011],Selectivity (CC50/IC50),[1],13.3
same,CC50,"[1]; 5637 cells, 72 hrs, ± SEM, read-out: Cytotoxicity (CC50)",51.6 ± 13.6 µM
same,"K1 reactive material, whole-cell anti-K1 dot blot",[2],reduces K1 reactive material to levels comparable to those of genetic capsule mutants
same,% Inh.,Adenosine A1,-17%
same,% Inh.,Adenosine A3,-5%
same,% Inh.,Adrenergic β1,3%
same,% Inh.,Endothelin ETA,-4%
same,% Inh.,Endothelin ETB,3%
same,% Inh.,Estrogen ERα,13%
same,% Inh.,"GABAA, Muscimol, Central",4%
same,% Inh.,GABAB1A,7%
same,% Inh.,"Glutamate, NMDA, Agonism",-8%
same,% Inh.,Histamine H3,13%
same,% Inh.,Muscarinic M1,10%
same,% Inh.,Neuropeptide Y Y1,2%
same,% Inh.,Nicotinic Acetylcholine,22%
same,% Inh.,[3],8%
same,% Inh.,"Opiate κ(OP2, KOP)",10%
same,% Inh.,"Opiate µ(OP3, MOP)",1%
same,% Inh.,[4],-1%
same,% Inh.,Tachykinin NK1,7%
same,% Inh.,Thyroid Hormone,20%
same,% Inh.,[5],58%
same,% Inh.,Potassium Channel hERG,9%
same,% Inh.,[6],19%
same,% Inh.,[7],-13%
same,% Inh.,Dopamine D2S,-6%
same,% Inh.,Bradykinin B2,4%
same,% Inh.,Glucocorticoid,16%
same,% Inh.,"Glutamate, NMDA, Glycine",6%
